Reference: patent EP2718307B1, “BETA-HAIRPIN PEPTIDOMIMETICS AS CXC4 ANTAGONISTS” (Polyphor AG, priority 2011, dated 2012)
Read-outs that look alike come from different tables or passages of the source. Bridge positions count the residues as written; N and C are the ends. Square brackets hold non-standard residues; d marks the D form. Peptide text beside a SMILES is read from it. Lys(iPr) = CC(C)NCCCC[C@H](N)C(=O)O; Orn(iPr) = CC(C)NCCC[C@H](N)C(=O)O

Tests used:
[1] = Plasma stability, mouse plasma; assay type: in vitro ADME
Description: The stability of the peptides in human and mouse plasma was determined by applying the following method: 346.5 µL/deep well of freshly thawed human plasma (Basler Blutspende-dienst) and mouse plasma (Harlan Sera-Lab, UK), respectively, were spiked with 3.5 µL/well of compound dissolved in DMSO/H2O (90/10 [v/v], 1 mM, triplicate) and incubated at 37° C. At t = 0, 15, 30, 60, 120, 240 and 1440 min aliquots of 50 µL were transferred to filtration plate wells containing 150 µL/well of 2% formic acid in acetonitrile. Following shaking for 2 min the occurred suspensions were filtrated by vacuum. 100 µL of each filtrate were transferred to a propylene microtiter plate and dried under N2. The residual solids were reconstituted by adding 100 µL/well of water/acetonitrile, 95/5 (v/v) + 0.2% formic acid and analyzed by LC/MS as follows: Column: Waters, XBridge C18, mobile phases: (A) water + 0.1% formic acid and (B) acetonitrile/water, 95/5 (v/v) + 0.1% formic acid, gradient: 5%-100% (B) in 1.8 minutes, electrospray ionization, MRM detection (triple quadrupole). The peak areas were determined and triplicate values are averaged. The stability is expressed in percent of the initial value at t = 0. (tx/t0 x 100). By using the TREND function of EXCEL (Microsoft Office 2003) T1/2 were determined.

[2] = target: T1, CXCR4 receptor (Homo sapiens, UniProt P61073); assay: Chemotactic assay (cell migration assay): response of Namalwa cells to an SDF-1 gradient; assay type: cell-based
T1 construct: Namalwa cells (CXCR4 natively expressing non-adherent cells, ATCC CRL-1432); host or cells: Namalwa cells
Description: Namalwa cells (CXCR4 natively expressing non-adherent cells, ATCC CRL-1432) were cultured in RPMI1640 plus 10% FBS, and pen/strept. HELA cells were maintained in RPMI1640 plus 10% FBS, pen/strept and 2 mM L-glutamine. Cos-7 cells were grown in DMEM medium with […] glucose supplemented with 10% FCS, pen/strept and 2 mM L-glutamine. All cell lines were grown at 37 °C at 5% CO2. Cell media, media supplements, PBS-buffer, HEPES, antibiotic/antimycotic, pen/strept, non essential amino acid, L-glutamine, β-mercaptoethanol and sera were purchased from Gibco (Pailsey, UK). All fine chemicals were supplied by Merck (Darmstadt, Germany).
The chemotactic response of Namalwa cells (ATCC CRL-1432) to a gradient of stromal cell-derived factor 1α (SDF-1) was measured using a modified Boyden chamber chemotaxis system (ChemoTx; Neuroprobe). In this system, the upper chamber of each well is separated from the lower chamber containing the chemoattractant SDF-1 by a polycarbonate membrane (5µm pore size). A circular area of that membrane in the region that covers each lower well is enclosed by a hydrophobic mask to retain the cell suspension within this area. The system was prepared by loading the bottom wells with aliquots of […] chemotaxis medium (RPMI 1640 without Phenol red + 0.5% BSA) comprising either appropriate serial dilutions of peptides or no peptide at all in combination with SDF-1 (0.9 nM) or without the chemoattractant. The membrane was placed over the bottom wells, and aliquots of 50 µL of a suspension of Namalwa cells (3.6 x 10^6 cells/mL) in chemotaxis medium, premixed with chemotaxis medium comprising either appropriate serial dilutions of peptides or no peptide at all, was delivered onto each of the hydrophobically limited regions of the upper surface of the membrane. The cells were allowed to migrate into the bottom chamber for 5 h at 37 °C in 5% CO2. After this period, the membrane was removed and its topside was carefully wiped and washed with PBS to eliminate non-migrated cells. Migrated cells were transferred using a "funnel" adaptor to a receiving 96-well plate and the cell number was determined by using the CyQuant™ NF cell proliferation assay (Invitrogen) based on the measurement of cellular DNA content via fluorescent dye binding. Following the manufacturer's directions, 50 µL of CyQuant™ dye reagent/HBSS buffer (1/500 [v/v]) were added to each well of the above mentioned receiving 96-well plate. After incubation for 0.5 h at room temperature the plate was sealed and the fluorescence intensity of each sample was measured by using a Wallac 1420 VICTOR^2™ plate reader (PerkinElmer) with excitation at 485 nm and emission detection at 535 nm. Finally, the data were normalized by using the controls and IC50-values were determined using GraphPad Prism™ (GraphPad) by fitting a logarithmic curve to the averaged datapoints.

[3] = system: human red blood cells (hRBC); assay: Hemolysis; assay type: cell-based
Description: The peptides were tested for their hemolytic activity against human red blood cells (hRBC). Fresh hRBC were washed four times with phosphate buffered saline (PBS) and centrifuged for 10 min at 3000 x g. Compounds (100 µM) were incubated with 20% hRBC (v/v) for 1 h at 37°C and shaking at 300 rpm. The final erythrocyte concentration was approximately 0.9 x 10^9 cells/mL. A value of 0% and 100% cell lysis, respectively, was determined by incubation of hRBC in the presence of PBS containing 0.001% acetic acid and 2.5% Triton X-100 in H2O respectively. The samples were centrifuged, the supernatants were 8-fold diluted in PBS buffer and the optical densities (OD) were measured at 540 nm. The 100% lyses value (OD540H2O) gave an OD540 of approximately 0.5-1.0. Percent hemolysis was calculated as follows: (OD540peptide/OD540H2O) x 100%. [formula]

[4] = Namalwa cells, SDF-1 0.9 nM, migration 5 h, read-out: IC50 [nM] ± SD, CXCR4 receptor

T1 sequence (P61073 whole entry): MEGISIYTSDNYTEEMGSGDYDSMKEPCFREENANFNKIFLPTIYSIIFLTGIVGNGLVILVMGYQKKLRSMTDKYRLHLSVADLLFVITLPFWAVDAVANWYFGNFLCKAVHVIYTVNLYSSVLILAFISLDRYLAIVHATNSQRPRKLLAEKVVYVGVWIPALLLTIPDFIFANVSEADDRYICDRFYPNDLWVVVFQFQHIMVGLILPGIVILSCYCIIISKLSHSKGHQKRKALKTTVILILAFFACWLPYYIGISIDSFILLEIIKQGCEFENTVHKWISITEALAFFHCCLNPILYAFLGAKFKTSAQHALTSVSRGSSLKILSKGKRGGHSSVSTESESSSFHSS

| Compound | Plasma stability mouse pl. T1/2 ([1]; mouse plasma, 37° C, last time point 1440 min) | IC50 [2] | Hemolysis at 100 µM ([3]; 100 µM, 20% hRBC, 1 h at 37°C) | Plasma stability mouse pl. T1/2 [1] | Plasma stability mouse pl. cpd left at 1440 min [1] | IC50 [2, 4] | Hemolysis at 100 µM ([3]; red cells of human, 1 h, 100) |
| --- | --- | --- | --- | --- | --- | --- | --- |
| COc1ccc(C[C@@H]2NC(=O)[C@H](Cc3c[nH]cn3)NC(=O)[C@H](Cc3ccc(O)cc3)NC(=O)[C@@H]3CCCN3C(=O)[C@H]3CCCN3C(=O)[C@H](CCCCNC(C)C)NC(=O)[C@H](CCC(N)=O)NC(=O)[C@H](Cc3ccc(O)cc3)NC(=O)[C@@H]3CSSC[C@H](NC2=O)C(=O)N[C@@H](CO)C(=O)N[C@@H](C)C(=O)N[C@H](Cc2ccc(OC)cc2)C(=O)N[C@@H](CCCNC(C)C)C(=O)N[C@@H](CCCNC(=N)N)C(=O)N[C@@H](Cc2ccc(O)cc2)C(=O)N3)cc1 [Ex. 6, cyclo(-Tyr^1-His^2-Tyr(Me)^3-Cys^4-Ser^5-Ala^6-^DTyr(Me)^7-Orn(iPr)^8-Arg^9-Tyr^10-Cys^11-Tyr^12-Gln^13-Lys(iPr)^14-^DPro^15-Pro^16-), disulfide bond between Cys^4 and Cys^11] (cyclo(YHY(Me)CSA[dY](Me)[Orn(iPr)]RYCYQ[Lys(iPr)][dP]P); disulfide 4-11) | 24 h | 0.09 ± 0.09 nM | 2% |  |  |  |  |
| CC(C)NCCCC[C@@H]1NC(=O)[C@H](CCC(N)=O)NC(=O)[C@H](Cc2ccc(O)cc2)NC(=O)[C@@H]2CSSC[C@H](NC(=O)[C@H](Cc3ccc(O)cc3)NC(=O)[C@H](Cc3c[nH]cn3)NC(=O)[C@H](Cc3ccc(O)cc3)NC(=O)[C@@H]3CCCN3C(=O)[C@H]3CCCN3C1=O)C(=O)N[C@@H](CO)C(=O)N[C@@H](C)C(=O)N1CCC[C@@H]1C(=O)N[C@@H](CCCNC(C)C)C(=O)N[C@@H](CCCNC(=N)N)C(=O)N[C@@H](Cc1ccc(O)cc1)C(=O)N2 [Ex. 1, cyclo(-Tyr^1-His^2-Tyr^3-Cys^4-Ser^5-Ala^6-^DPro^7-Orn(iPr)^8-Arg^9-Tyr^10-Cys^11-Tyr^12-Gln^13-Lys(iPr)^14-^DPro^15-Pro^16-), disulfide bond between Cys^4 and Cys^11] (cyclo(YHYCSA[dP][Orn(iPr)]RYCYQ[Lys(iPr)][dP]P); disulfide 4-11) |  |  |  | 24 h | 100% | 0.42 ± 0.1 nM | 1.0% |
| COc1ccc(C[C@@H]2NC(=O)[C@H](Cc3c[nH]cn3)NC(=O)[C@H](Cc3ccc(O)cc3)NC(=O)[C@@H]3CCCN3C(=O)[C@H]3CCCN3C(=O)[C@H](CCCCNC(C)C)NC(=O)[C@H](CCC(N)=O)NC(=O)[C@H](Cc3ccc(O)cc3)NC(=O)[C@@H]3CSSC[C@H](NC2=O)C(=O)N[C@@H](CO)C(=O)N[C@@H](C)C(=O)N2CCC[C@@H]2C(=O)N[C@@H](CCCNC(C)C)C(=O)N[C@@H](CCCNC(=N)N)C(=O)N[C@@H](Cc2ccc(O)cc2)C(=O)N3)cc1 [Ex. 2, cyclo(-Tyr^1-His^2-Tyr(Me)^3-Cys^4-Ser^5-Ala^6-^DPro^7-Orn(iPr)^8-Arg^9-Tyr^10-Cys^11-Tyr^12-Gln^13-Lys(iPr)^14-^DPro^15-Pro^16-), disulfide bond between Cys^4 and Cys^11] (cyclo(YHY(Me)CSA[dP][Orn(iPr)]RYCYQ[Lys(iPr)][dP]P); disulfide 4-11) |  |  |  | 24 h | 100% | 0.69 ± 0.43 nM | 1.0% |
| COc1ccc(C[C@H]2NC(=O)[C@H](C)NC(=O)[C@H](CO)NC(=O)[C@@H]3CSSC[C@H](NC(=O)[C@H](Cc4ccc(O)cc4)NC(=O)[C@H](CCCNC(=N)N)NC(=O)[C@H](CCCNC(C)C)NC2=O)C(=O)N[C@@H](Cc2ccc(O)cc2)C(=O)N[C@@H](CCC(N)=O)C(=O)N[C@@H](CCCCNC(C)C)C(=O)N2CCC[C@@H]2C(=O)N2CCC[C@H]2C(=O)N[C@@H](Cc2ccc(O)cc2)C(=O)N[C@@H](Cc2c[nH]cn2)C(=O)N[C@@H](C)C(=O)N3)cc1 [Ex. 4, cyclo(-Tyr^1-His^2-Ala^3-Cys^4-Ser^5-Ala^6-^DTyr(Me)^7-Orn(iPr)^8-Arg^9-Tyr^10-Cys^11-Tyr^12-Gln^13-Lys(iPr)^14-^DPro^15-Pro^16-), disulfide bond between Cys^4 and Cys^11] (cyclo(YHACSA[dY](Me)[Orn(iPr)]RYCYQ[Lys(iPr)][dP]P); disulfide 4-11) |  |  |  | 24 h | 60% | 0.18 ± 0.09 nM | 0% |
